Biological target: GST-tagged-Wee1 kinase (Homo sapiens, UniProt P30291)
Assay: Wee1 time-resolved fluorescence equilibrium binding assay (displacement of Oregon Green-labeled ATP-competitive kinase probe)
Protocol: Wee1 kinase was assayed using a time-resolved fluorescence equilibrium binding assay monitoring displacement of a rapidly reversible Oregon Green-labeled ATP-competitive kinase probe (N-(2-(2-(2-(4-(4-(5-chloro-4-(2-(1-hydroxycyclobutyl)thiazol-5-yl)-1H-pyrrolo[2,3-b]pyridin-2-yl)phenyl)piperazin-1-yl)ethoxy)ethoxy)ethyl)-2′,7′-difluoro-3′,6′-dihydroxy-3-oxo-3H-spiro[isobenzofuran-1,9′-xanthene]-5-carboxamide) by competitive Wee1 inhibitors.

Sequence of GST-tagged-Wee1 kinase (P30291 whole entry): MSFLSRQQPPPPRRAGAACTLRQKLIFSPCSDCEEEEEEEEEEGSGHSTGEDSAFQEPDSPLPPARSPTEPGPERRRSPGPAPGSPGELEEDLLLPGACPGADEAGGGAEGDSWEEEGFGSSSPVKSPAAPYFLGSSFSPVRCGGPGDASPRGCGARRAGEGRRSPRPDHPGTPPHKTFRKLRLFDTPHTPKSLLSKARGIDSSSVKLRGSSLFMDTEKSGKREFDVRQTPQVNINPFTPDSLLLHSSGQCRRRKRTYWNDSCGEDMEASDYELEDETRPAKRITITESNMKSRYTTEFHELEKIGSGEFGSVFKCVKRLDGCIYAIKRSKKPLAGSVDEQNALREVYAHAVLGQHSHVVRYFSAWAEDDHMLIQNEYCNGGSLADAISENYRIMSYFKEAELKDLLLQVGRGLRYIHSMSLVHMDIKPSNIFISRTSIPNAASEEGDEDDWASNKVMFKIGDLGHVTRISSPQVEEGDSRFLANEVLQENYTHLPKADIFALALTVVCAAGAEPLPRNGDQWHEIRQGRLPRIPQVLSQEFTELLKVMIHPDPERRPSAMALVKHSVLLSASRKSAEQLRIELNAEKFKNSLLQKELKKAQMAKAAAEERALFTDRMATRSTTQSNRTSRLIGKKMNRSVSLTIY

Ki	SMILES
0.1 nM	CN1CCN(c2ccc(Nc3ncc4c(=O)n(-c5c(Cl)cccc5Cl)nc(-c5cccc(C(C)(C)O)n5)c4n3)cc2)CC1 [Example 160, 6-(2,6-dichlorophenyl)-8-[6-(2-hydroxypropan-2-yl)pyridin-2-yl]-2-{[4-(4-methylpiperazin-1-yl)phenyl]amino}pyrimido[4,5-d]pyridazin-5(6H)-one]
3 nM	C=CCn1nc(-c2cccs2)c2nc(Nc3ccc(N4CCN(C(C)C)CC4)c(OC)c3)ncc2c1=O [Example 161, 6-allyl-2-{[4-(4-isopropylpiperazin-1-yl)-3-methoxyphenyl]amino}-8-(2-thienyl)pyrimido[4,5-d]pyridazin-5(6H)-one]
4 nM	C=CCn1nc(-c2cccs2)c2nc(Nc3ccc4c(c3)CN(C)CC4)ncc2c1=O [Example 162, 6-allyl-2-[(2-methyl-1,2,3,4-tetrahydroisoquinolin-7-yl)amino]-8-(2-thienyl)pyrimido[4,5-d]pyridazin-5(6H)-one]
4 nM	C=CCn1nc(-c2cccs2)c2nc(Nc3ccc(N4CCCN(C(C)C)CC4)c(C)c3)ncc2c1=O [Example 163, 6-allyl-2-{[4-(4-isopropyl-1,4-diazepan-1-yl)-3-methylphenyl]amino}-8-(2-thienyl)pyrimido[4,5-d]pyridazin-5(6H)-one]
0.5 nM	Cc1ccccc1-n1nc(-c2cccs2)c2nc(Nc3ccc4c(c3)CN(C)CC4)ncc2c1=O [Example 164, 6-(2-methylphenyl)-2-[(2-methyl-1,2,3,4-tetrahydroisoquinolin-7-yl)amino]-8-(2-thienyl)pyrimido[4,5-d]pyridazin-5(6H)-one]
> 3140 nM	O=c1c2cnc(Nc3ccc(S(=O)(=O)N4CCOCC4)cc3)nc2c(-c2cccs2)nn1-c1ccccc1Cl [Example 165, 6-(2-chlorophenyl)-2-{[4-(morpholin-4-ylsulfonyl)phenyl]amino}-8-(2-thienyl)pyrimido[4,5-d]pyridazin-5(6H)-one]
0.4 nM	CN1CCc2ccc(Nc3ncc4c(=O)n(-c5ccccc5Cl)nc(-c5cccs5)c4n3)cc2C1 [Example 167, 6-(2-chlorophenyl)-2-[(2-methyl-1,2,3,4-tetrahydroisoquinolin-7-yl)amino]-8-(2-thienyl)pyrimido[4,5-d]pyridazin-5(6H)-one]
2 nM	O=C1CCCN1c1ccc(Nc2ncc3c(=O)n(-c4ccccc4Cl)nc(-c4ccccc4)c3n2)cc1 [Example 168, 6-(2-chlorophenyl)-2-{[4-(2-oxopyrrolidin-1-yl)phenyl]amino}-8-phenylpyrimido[4,5-d]pyridazin-5(6H)-one]
2 nM	C=CCn1nc(-c2ccccc2)c2nc(Nc3ccc(N4CCN(C(C)C)CC4)c(C)c3)ncc2c1=O [Example 169, 6-allyl-2-{[4-(4-isopropylpiperazin-1-yl)-3-methylphenyl]amino}-8-phenylpyrimido[4,5-d]pyridazin-5(6H)-one]
0.7 nM	Cc1cc(Nc2ncc3c(=O)n(-c4ccccc4C)nc(-c4ccccc4)c3n2)ccc1N1CCN(C(C)C)CC1 [Example 170, 2-{[4-(4-isopropylpiperazin-1-yl)-3-methylphenyl]amino}-6-(2-methylphenyl)-8-phenylpyrimido[4,5-d]pyridazin-5(6H)-one]
0.6 nM	Cc1ccccc1-n1nc(-c2ccccc2)c2nc(Nc3ccc4c(c3)CN(C)CC4)ncc2c1=O [Example 171, 6-(2-methylphenyl)-2-[(2-methyl-1,2,3,4-tetrahydroisoquinolin-7-yl)amino]-8-phenylpyrimido[4,5-d]pyridazin-5(6H)-one]
2.5 nM	C=CCn1nc(-c2ccccc2)c2nc(Nc3ccc4c(c3)CN(C)CC43CC3)ncc2c1=O [Example 172, 6-allyl-2-[(2′-methyl-2′,3′-dihydro-1′H-spiro[cyclopropane-1,4′-isoquinolin]-7′-yl)amino]-8-phenylpyrimido[4,5-d]pyridazin-5(6H)-one]
0.4 nM	Cc1ccccc1-n1nc(-c2ccccc2)c2nc(Nc3ccc4c(c3)CN(C)CC43CC3)ncc2c1=O [Example 173, 2-[(2′-methyl-2′,3′-dihydro-1′H-spiro[cyclopropane-1,4′-isoquinolin]-7′-yl)amino]-6-(2-methylphenyl)-8-phenylpyrimido[4,5-d]pyridazin-5(6H)-one]
0.1 nM	COc1cc(Nc2ncc3c(=O)n(-c4ccccc4Cl)nc(-c4cccs4)c3n2)ccc1N1CCN(C(C)C)CC1 [Example 174, 6-(2-chlorophenyl)-2-{[4-(4-isopropylpiperazin-1-yl)-3-methoxyphenyl]amino}-8-(2-thienyl)pyrimido[4,5-d]pyridazin-5(6H)-one]
0.2 nM	CC(=O)c1cccc(-c2nn(-c3c(Cl)cccc3Cl)c(=O)c3cnc(Nc4ccc(N5CCN(C)CC5)cc4)nc23)n1 [Example 175, 8-(6-acetylpyridin-2-yl)-6-(2,6-dichlorophenyl)-2-{[4-(4-methylpiperazin-1-yl)phenyl]amino}pyrimido[4,5-d]pyridazin-5(6H)-one]
36 nM	CCC(O)(CC)c1cccc(-c2nn(-c3c(Cl)cccc3Cl)c(=O)c3cnc(Nc4ccc(N5CCN(C)CC5)cc4)nc23)n1 [Example 176, 6-(2,6-dichlorophenyl)-8-[6-(3-hydroxypentan-3-yl)pyridin-2-yl]-2-{[4-(4-methylpiperazin-1-yl)phenyl]amino}pyrimido[4,5-d]pyridazin-5(6H)-one]
19 nM	CN1CCN(c2ccc(Nc3ncc4c(=O)n(-c5ccccc5)nc(-c5ccncn5)c4n3)cc2)CC1 [Example 177, 2-{[4-(4-methylpiperazin-1-yl)phenyl]amino}-6-phenyl-8-(pyrimidin-4-yl)pyrimido[4,5-d]pyridazin-5(6H)-one]
2 nM	CN1CCN(c2ccc(Nc3ncc4c(=O)n(-c5ccccc5Cl)nc(-c5ccncn5)c4n3)cc2)CC1 [Example 178, 6-(2-chlorophenyl)-2-{[4-(4-methylpiperazin-1-yl)phenyl]amino}-8-(pyrimidin-4-yl)pyrimido[4,5-d]pyridazin-5(6H)-one]
0.1 nM	CN1CCN(c2ccc(Nc3ncc4c(=O)n(-c5c(Cl)cccc5Cl)nc(-c5ccncn5)c4n3)cc2)CC1 [Example 179, 6-(2,6-dichlorophenyl)-2-{[4-(4-methylpiperazin-1-yl)phenyl]amino}-8-(pyrimidin-4-yl)pyrimido[4,5-d]pyridazin-5(6H)-one]
2 nM	CN1CCN(c2ccc(Nc3ncc4c(=O)n(-c5c(Cl)cccc5Cl)nc(-c5cccc(N6CCCC6)n5)c4n3)cc2)CC1 [Example 180, 6-(2,6-dichlorophenyl)-2-{[4-(4-methylpiperazin-1-yl)phenyl]amino}-8-[6-(pyrrolidin-1-yl)pyridin-2-yl]pyrimido[4,5-d]pyridazin-5(6H)-on]
6 nM	CN1CCN(c2ccc(Nc3ncc4c(=O)n(-c5ccccc5Cl)nc(-c5cccc(N6CCCC6)n5)c4n3)cc2)CC1 [Example 181, 6-(2-chlorophenyl)-2-{[4-(4-methylpiperazin-1-yl)phenyl]amino}-8-[6-(pyrrolidin-1-yl)pyridin-2-yl]pyrimido[4,5-d]pyridazin-5(6H)-one]
12 nM	Cc1ccccc1-n1nc(-c2cccc(N3CCCC3)n2)c2nc(Nc3ccc(N4CCN(C)CC4)cc3)ncc2c1=O [Example 182, 6-(2-methylphenyl)-2-{[4-(4-methylpiperazin-1-yl)phenyl]amino}-8-[6-(pyrrolidin-1-yl)pyridin-2-yl]pyrimido[4,5-d]pyridazin-5(6H)-one]
0.02 nM	CNCc1cccc(-c2nn(-c3c(Cl)cccc3Cl)c(=O)c3cnc(Nc4ccc(N5CCN(C)CC5)cc4)nc23)c1 [Example 183, 6-(2,6-dichlorophenyl)-8-{3-[(methylamino)methyl]phenyl}-2-{[4-(4-methylpiperazin-1-yl)phenyl]amino}pyrimido[4,5-d]pyridazin-5(6H)-one]
0.03 nM	CN(C)Cc1cccc(-c2nn(-c3c(Cl)cccc3Cl)c(=O)c3cnc(Nc4ccc(N5CCN(C)CC5)cc4)nc23)c1 [Example 184, 6-(2,6-dichlorophenyl)-8-{3-[(dimethylamino)methyl]phenyl}-2-{[4-(4-methylpiperazin-1-yl)phenyl]amino}pyrimido[4,5-d]pyridazin-5(6H)-one]
0.04 nM	CC(=O)c1cccc(-c2nn(-c3c(Cl)cccc3Cl)c(=O)c3cnc(Nc4ccc(N5CCN(C)CC5)cc4)nc23)c1 [Example 185, 8-(3-acetylphenyl)-6-(2,6-dichlorophenyl)-2-{[4-(4-methylpiperazin-1-yl)phenyl]amino}pyrimido[4,5-d]pyridazin-5(6H)-one]
0.02 nM	CNC(C)c1cccc(-c2nn(-c3c(Cl)cccc3Cl)c(=O)c3cnc(Nc4ccc(N5CCN(C)CC5)cc4)nc23)c1 (centres unmarked) [Example 186, 6-(2,6-dichlorophenyl)-8-{3-[1-(methylamino)ethyl]phenyl}-2-{[4-(4-methylpiperazin-1-yl)phenyl]amino}pyrimido[4,5-d]pyridazin-5(6H)-one]
1800 nM	CN1CCN(c2ccc(Nc3ncc4c(=O)n(C)nc(C5CC(F)(F)C5)c4n3)cc2)CC1 [Example 187, 8-(3,3-difluorocyclobutyl)-6-methyl-2-{[4-(4-methylpiperazin-1-yl)phenyl]amino}pyrimido[4,5-d]pyridazin-5(6H)-one]
1 nM	COC(=O)c1cccc(-c2nn(-c3c(Cl)cccc3Cl)c(=O)c3cnc(Nc4ccc(N5CCN(C)CC5)cc4)nc23)c1 [Example 188, methyl 3-[6-(2,6-dichlorophenyl)-2-{[4-(4-methylpiperazin-1-yl)phenyl]amino}-5-oxo-5,6-dihydropyrimido[4,5-d]pyridazin-8-yl]benzoate]
0.02 nM	CN1CCN(c2ccc(Nc3ncc4c(=O)n(-c5c(Cl)cccc5Cl)nc(-c5cccc(C(=O)N(C)C)c5)c4n3)cc2)CC1 [Example 189, 3-[6-(2,6-dichlorophenyl)-2-{[4-(4-methylpiperazin-1-yl)phenyl]amino}-5-oxo-5,6-dihydropyrimido[4,5-d]pyridazin-8-yl]-N,N-dimethylbenzamide]

Source: US8796289B2 (AbbVie Inc., priority 2011, dated 2014)
